{"source": "patent US4749559A", "about": "“Method for detecting melanin-containing matter” (United States of America, priority 1986, dated 1988)", "key": {"B16 melanoma [1]": {"test_system": "B16 melanoma", "assay": "In vitro binding of [125I]BZZ to homogenate of B16 melanoma", "parameters": "species or system mouse", "protocol": "(§1) A tissue homogenate rather than washed particulate material was used for the assay. The assay system (final volume 200 μ) contained Tris-HCl (pH 7.4), 80 mM; ethyleneglyco-bis-(β-aminoethyl ether) N,N',tetraacetic (EGTA), 0.8 mM and MgSO4, 10 mM; radiolabeled ligand (40,000 cpm, 60 pM) and the unlabeled ligand as required for competitive assay; and incubations were performed at 25° C. for about 60 min. When binding to striatum and to tumor were compared, binding to homogenates of both tissues was determined simultaneously. In order to determine the reproducibility of the results, ligand binding was determined in 3 replicate samples for each experimental condition. The mean of these three values was taken as a single errorless value and the mean of three (or more) of such values from independent experiments is reported. Data represent mean ± SE."}, "D-1 dopamine receptor": {"biological_target": "T1, D-1 dopamine receptor (Mus musculus, UniProt Q61616)", "T1 construct": "homogenate of the caudate putamen of the Swiss Webster mouse brain; from tissue; host or cells: caudate-putamen homogenate, Swiss Webster mouse brain", "T1 sequence (Q61616 whole entry)": "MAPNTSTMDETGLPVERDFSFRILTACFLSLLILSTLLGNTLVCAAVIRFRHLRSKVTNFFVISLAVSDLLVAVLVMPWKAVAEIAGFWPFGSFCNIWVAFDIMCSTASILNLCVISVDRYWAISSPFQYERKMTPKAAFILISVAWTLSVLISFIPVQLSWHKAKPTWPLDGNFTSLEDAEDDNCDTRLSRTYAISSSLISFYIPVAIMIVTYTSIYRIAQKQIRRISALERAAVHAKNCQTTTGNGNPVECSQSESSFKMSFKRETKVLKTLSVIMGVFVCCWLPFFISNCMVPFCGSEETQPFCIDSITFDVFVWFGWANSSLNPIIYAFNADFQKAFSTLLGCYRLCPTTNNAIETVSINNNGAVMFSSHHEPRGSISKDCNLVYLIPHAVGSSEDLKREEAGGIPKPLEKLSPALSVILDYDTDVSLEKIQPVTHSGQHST", "assay": "In vitro binding of [125I]BZZ to homogenate of caudate putamen (competition with unlabeled SCH23390 enantiomers)", "details": "FIG. 4A", "protocol": "as §1"}, "[2]": {"test_system": "caudate nucleus of the rat brain", "assay": "Binding of [125I]BZZ enantiomers to homogenate of caudate nucleus", "details": "FIG. 5", "protocol": "as §1"}, "human melanoma": {"test_system": "human melanoma", "assay": "In vitro autoradiography of frozen sections of human melanoma (lymph node)", "assay_type": "binding", "details": "lymph node with pigmented metastatic melanoma; 200 pM ligand; FIG. 6 right", "protocol": "(§2) After animals were killed, the brain, eyes or tumor were immediately removed and frozen on dry ice. Frozen, 16 μthick sections were cut in a cryostat at -16° C., thaw-mounted onto gelatin-coated slides and stored overnight under vacuum at 4° C. The tissue sections were preincubated for 15 min in 50 mM Tris-HCl buffer, pH 7.4, for 15 min and then incubated for 20 min in a solution containing 50 mM Tris-HCl, pH 7.4, 120 mM NaCl, 5 mM KCl, 2 mM CaCl2, 1 mM MgCl2 and 200 pM iodinated ligand (either R or S enantiomer). After incubation, the slides were washed 4 times in ice-cold 50 mM Tris-HCl buffer and dried under a stream of air. Autoradiographic images were produced by placing the slides in X-ray casettes and using them to expose [^3 H]ultra film for 15 hours following standard procedure."}, "B16 melanoma [3]": {"test_system": "B16 melanoma", "assay": "In vitro autoradiography of frozen sections of B16 melanoma", "assay_type": "binding, mouse", "details": "200 pM ligand; FIG. 6 left", "protocol": "as §2"}, "B16 melanoma [4]": {"test_system": "B16 melanoma", "assay": "In vivo accumulation of intravenously administered radiolabel in B16 melanoma (gamma counting, autoradiography)", "parameters": "species or system mouse", "protocol": "The B16 melanoma was removed from the host mouse, washed in a balanced salt solution and then cut into small fragments (approximately 2 mm cubes). A tumor fragment was then implanted subcutaneously with a trochar into either the back or hind limb of the recipient mouse (either a C57/B16 or Swiss-Webster). Tumors could be easily seen within 2 to 3 weeks after implantation of the tumor fragment.\n(§3) Radiolabeled ligand was dissolved in Hank's balanced salt solution and administered via the tail vein as a bolus of 100 μl. At appropriate times, the animals were sacrificed and various organs removed. The amount of ^125 I radioactivity within a given organ was determined with a gamma counter.\nas §2"}, "[5]": {"assay": "In vitro autoradiography of frozen section of retina", "assay_type": "binding, mouse", "details": "FIG. 3C", "protocol": "as §2\nEmulsion autoradiography was performed as follows: a flexible coverslip coated with NTB-3 (Kodak) was exposed to the tissue section; when the exposure was complete in about a day (about 24 hrs) the emulsion was developed at 4° for 2 min in D-19 developer. The section was stained with hematoxylin and eosin and the coverslip was reexposed to the stained section."}, "[6]": {"assay": "In vivo accumulation of radiolabel in eyes of pigmented and albino mice", "parameters": "species or system mouse", "protocol": "as §3, §2"}, "B16 melanoma [7]": {"test_system": "B16 melanoma", "assay": "Noninvasive imaging of [125I] with pinhole collimator and gamma camera", "assay_type": "in vivo, mouse", "details": "tumor-bearing and nontumor-bearing mice; 50 μCi intravenous; FIG. 2", "protocol": "Mice received a bolus injection of [^125 I]BZZ (50 μCi) dissolved in Hank's balanced salt solution via the tail vein. At several times, the distribution of [^125 I]was determined by imaging with a pinhole collimeter attached to a gamma camera (Raytheon Nuclear Diagnostics)."}, "[8]": {"details": "mouse given B16 melanoma cells intravenously 3 weeks earlier, 50 μCi, autoradiogram FIG. 1D, E"}}, "data": [{"smiles": "CN1CCc2cc(Cl)c(O)cc2C(c2ccccc2)C1", "note": "(centres unmarked) [2,3,4,5-tetrahydro-8-chloro-3 methyl-5-phenyl-1H-3 benzazepin-7-ol]", "values": [{"measurement": "displacement of [125I]BZZ from melanoma tissue", "setting": "B16 melanoma [1]", "value": "effectively displaced"}]}, {"smiles": "CN1CCc2cc(Cl)c(O)cc2[C@@H](c2ccccc2)C1", "note": "[R-enantiomer, reference compound]", "values": [{"measurement": "affinity for R-enantiomer relative to S-enantiomer", "setting": "D-1 dopamine receptor; D-1 receptor in caudate nucleus, displacement of [125I]BZZ", "value": 100, "unit": "fold"}, {"measurement": "concentration required to displace [125I]BZZ from melanoma binding site relative to D-1 dopamine receptor", "setting": "B16 melanoma [1]; B16 melanoma versus caudate homogenate, FIGS. 4A and B", "value": 400, "unit": "fold"}, {"measurement": "difference between R- and S-enantiomers", "setting": "B16 melanoma [1]; binding site in B16 melanoma, displacement of [125I]BZZ, FIG. 4B", "value": 5.1, "unit": "fold"}]}, {"smiles": "CN1CCc2cc([125I])c(O)cc2[C@H](c2ccccc2)C1", "note": "[[^125 I]-S-BZZ]", "values": [{"measurement": "binding to homogenate of caudate nucleus", "setting": "[2]", "value": "failed to bind"}, {"measurement": "binding to metastatic human melanoma (frozen section autoradiogram)", "setting": "human melanoma", "value": "effectively bind"}, {"measurement": "binding to frozen sections of murine B16 melanoma", "setting": "B16 melanoma [3]", "value": "bound to frozen sections"}, {"measurement": "binding to pigmented B16 melanoma homogenate", "setting": "B16 melanoma [1]; compared with R-enantiomer, FIG. 5", "value": "to the same degree as did its R-enantiomer"}]}, {"smiles": "CN1CCc2cc([125I])c(O)cc2[C@@H](c2ccccc2)C1", "note": "[[^125 I]BZZ]", "values": [{"measurement": "binding to metastatic human melanoma (frozen section autoradiogram)", "setting": "human melanoma", "value": "effectively bind"}, {"measurement": "concentration of radiolabel within B-16 melanoma relative to nonpigmented eye", "setting": "B16 melanoma [4]; albino mouse, 10 μCi intravenous, within 45 min, p<0.001", "value": 19, "unit": "times"}, {"measurement": "accumulation of radiolabel in tumor versus surrounding tissues (autoradiograph)", "setting": "B16 melanoma [4]; frozen section of B16 melanoma after intravenous administration, FIG. 1B, C", "value": "much higher degree than within the surrounding tissues"}, {"measurement": "accumulation of radiolabel in foci of pigmented cells of lung (metastatic melanoma)", "setting": "B16 melanoma [4]; [8]", "value": "heavy accumulation of radiolabel"}, {"measurement": "binding of ligand to normal lung tissue", "setting": "B16 melanoma [4]; [8]", "value": "does not bind the ligand"}, {"measurement": "localization of radiolabel in frozen section of retina exposed to ligand in vitro", "setting": "[5]", "value": "highly concentrated within the melanin containing pigment epithelium"}, {"measurement": "amount of bound radioactivity corresponding to 100 percent", "setting": "D-1 dopamine receptor; homogenate of caudate putamen of Swiss Webster mouse brain", "value": "23,379±555 cpm/mg wet wt"}, {"measurement": "binding to frozen sections of murine B16 melanoma", "setting": "B16 melanoma [3]", "value": "bound to frozen sections"}, {"measurement": "amount of bound radioactivity corresponding to 100 percent", "setting": "B16 melanoma [1]; homogenate of B16 melanoma propagated in Swiss Webster mice, FIG. 4B", "value": "18,033±3,647 cpm/mg wet weight"}, {"measurement": "localization of radiolabel within the pigmented eye (autoradiography)", "setting": "[6]; 50 μCi, 45 min, FIG. 3B", "value": "accumulated predominantly in a narrow band at the back of the pigmented eye"}, {"measurement": "difference between amount of radiolabel accumulated in pigmented and albino eyes", "setting": "[6]; C57B1/6 versus Swiss Webster mouse, 10 μCi intravenous, P<0.001", "value": 79, "unit": "fold"}, {"measurement": "accumulation within the abdomen", "setting": "B16 melanoma [7]", "value": "substantial accumulation"}]}]}
